From patent US9084423B2, “Inhibition of bacterial biofilms with imidazole derivatives” (North Carolina State University, priority 2007, dated 2015)
Structures can show the parent of a compound that is named as a salt.

How the values were obtained:
Assay type in all cases: cell-based, Pseudomonas aeruginosa
[1] = system: P. aeruginosa strain PAO1; assay: Static biofilm inhibition assay (crystal violet), PAO1; details: for IC50: inhibition of biofilm formation, crystal violet, 24 hours
Experimental: Each compound was assayed for the ability to inhibit the formation of P. aeruginosa biofilms. […] We employed a standard crystal violet reporter assay to assess for the formation of biofilms. Briefly, P. aeruginosa strain PAO1 was allowed to form biofilms in a multi-well plate in the absence or presence of our compounds. Planktonic (or free growing) bacteria were then removed, wells washed vigorously, and crystal violet added. Crystal violet stains the remaining bacteria which, following ethanol solubilization, can be quantitated by spectrophotometry (A540).
(§1) An overnight culture of the bacterial strain being screened against was subcultured at an OD600 of 0.1 into the media used (listed below with strain) and then pipetted into test tubes along with a predetermined concentration of our compound of interest. Test tubes were then poured into tilted Petri dishes and 100 μL of media, strain and compound were then transferred into 96-well PVC microtiter plates. These microtiter plates were then covered, wrapped in Saran™ Wrap polyethylene film (S.C. Johnson, Racine, Wis.) and allowed to incubate at 37° C. for 24 hours. After that time, the medium was discarded and the plates were thoroughly washed with water. The remaining biofilm that was formed during incubation was stained with 100 μL of a 0.1% crystal violet solution and allowed to incubate at room temperature for 30 minutes. After 30 minutes, the crystal violet was discarded and washed thoroughly again with water. The remaining crystal violet that had stained the biofilm in the inside walls of the 96-well PVC plates was solubilized with 200 μL of 95% ethanol. The quantification of biofilm formation was accomplished by transferring 125 μL of the ethanol solution into a polystyrene microtiter dish, which was read by spectrophotometry (A540). After the background has been subtracted from each row, a percent inhibition can be calculated by dividing the amount of crystal violet in wells that contained compound by the amount of crystal violet in wells that contained bacteria only. Each concentration reported during the course of this study was repeated two to five times with each of those biofilm inhibition assays being done in 6 replicates each.
(§2) An overnight culture of the wild type strain was subcultured at an OD600 of 0.10 into LBNS along with a predetermined concentration of the small molecule to be tested for biofilm inhibition. Samples were then aliquoted (100 μL) into the wells of a 96-well PVC microtiter plate. The microtiter dishes were covered and sealed before incubation under stationary conditions at 37° C. for 24 hours. After that time, the medium was discarded and the plates thoroughly washed with water. The wells were then inoculated with a 0.1% aqueous solution of crystal violet (100 μL) and allowed to stand at ambient temperature for 30 minutes. Following another thorough washing with water the remaining stain was solubilized with 200 μL of 95% ethanol. Biofilm inhibition was quantitated by measuring the OD540 for each well by transferring 125 μL of the ethanol solution into a fresh polystyrene microtiter dish for analysis.
(§3) To examine each compound's ability to inhibit the formation of Pseudomonas aeruginosa biofilms, PAO1 and PA14 were employed as the target bacterial strains using a crystal violet reporter assay. G. A. O'Toole, R. Kolter, Mol. Microbiol. 1998, 28, 449. All compounds were initially screened at 500 μM for anti-biofilm activity.
An overnight culture of the wild type strain was subcultured at an OD600 of 0.10 into LBNS along with a predetermined concentration of the small molecule to be tested for biofilm inhibition. Samples were then aliquoted (100 μL) into the wells of a 96-well PVC microtiter plate. The microtiter dishes were covered and sealed before incubation under stationary conditions at 37° C. for 24 hours, After that time, the medium was discarded and the plates thoroughly washed with water. […]

P. aeruginosa PA14 = assay: Static biofilm inhibition assay (crystal violet), PA14; details: for inhibition at 500 µM: PA14, 24 h; for IC50: inhibition of biofilm formation, crystal violet, 24 hours
Experimental: as §1, §2, §3
as §2, with “for 24 hours, After that” for “for 24 hours. After that”, “violet (100 pt) and allowed” for “violet (100 μL) and allowed”

[2] = system: planktonic P. aeruginosa PAO1; assay: Planktonic growth (growth curves, colony counts), PAO1; details: growth curves and/or colony counts, presence vs absence of compound, at IC50 or as stated
From the text: To answer the question of whether the compounds were antibiotics or true inhibitors of biofilm formation, we tested the ability of both compounds to inhibit growth of planktonic P. aeruginosa. Growth was quantitated by measuring optical density at 600 nm. […]

[3] = system: planktonic P. aeruginosa PA14; assay: Planktonic growth (growth curves, colony counts), PA14; details: growth curves and/or colony counts, presence vs absence of compound, at IC50 or as stated
[4] = listed as sventrin 24, Hydrochloride
[5] = listed as sventrin (6), Hydrochloride

In the case of `O=C(NCCc1c[nH]cn1)c1cc(Br)c(Br)[nH]1` [Compound 36, 4,5-dibromo-1H-pyrrole-2-carboxylic acid [2-(1H-imidazol-4-yl)-ethyl]-amide hydrochloride], the inhibition at 500 µM ([1]; Pseudomonas aeruginosa, PAO1) is reported as 73% and the inhibition at 500 µM (P. aeruginosa PA14; Pseudomonas aeruginosa) is reported as 69%.
In the case of `Cl.Cn1cccc1C(=O)NCCCc1c[nH]c(N)n1` [Compound 21, 1-methyl-pyrrole-2-carboxylic acid [3-(2-amino-1H-imidazol-4-yl)-propyl]-amide hydrochloride], the inhibition at 500 µM ([1]; Pseudomonas aeruginosa, PAO1) is reported as 25% and the “inhibition of PA14 biofilm formation (in words)” value (P. aeruginosa PA14; screen at 500 μM) is reported as “inactive”.
With `Cn1cc(Br)cc1C(=O)NCCc1c[nH]cn1` [Compound 39, 4-bromo-1-methyl-pyrrole-2-carboxylic acid [2-(1H-imidazol-4-yl)-ethyl]amide hydrochloride] the inhibition at 500 µM ([1]; Pseudomonas aeruginosa, PAO1) was 37% and the inhibition at 500 µM (P. aeruginosa PA14; Pseudomonas aeruginosa) was 21%.
In the case of `Cn1c(C(=O)NC/C=C/c2cnc(N)[nH]2)cc(Br)c1Br` [sventrin, Sventrin Hydrochloride, reference compound], the “microbicidal effect on PAO1 planktonic growth (in words)” value [2, 4] is reported as “did not induce microbial cell death”, the “microbicidal effect on PAO1 planktonic growth (in words)” value [2, 5] is reported as “not due to a bactericidal effect” and the IC50 [1] is reported as 75 ± 5 µM. For the same compound, the “microbicidal effect on PA14 planktonic growth (in words)” value [3, 4] was “did not induce microbial cell death”, the “microbicidal effect on PA14 planktonic growth (in words)” value [3, 5] was “not due to a bactericidal effect” and the IC50 (P. aeruginosa PA14) was 115 ± 3 µM.
In the case of `Nc1nc(CCCNC(=O)c2cc(Br)c[nH]2)c[nH]1` [Compound 18, 4-bromo-1H-pyrrole-2-carboxylic acid [3-(2-amino-1H-imidazol-4-yl)-propyl]-amide hydrochloride], the inhibition at 500 µM ([1]; Pseudomonas aeruginosa, PAO1) is reported as 74%, the IC50 ([1]; Pseudomonas aeruginosa, PAO1) is reported as 323 ± 30 µM and the inhibition at 500 µM (P. aeruginosa PA14; Pseudomonas aeruginosa) is reported as 86%. It also gave an IC50 (P. aeruginosa PA14; Pseudomonas aeruginosa, PA14) of 266 ± 23 µM.
In the case of `O=C(NCCCc1c[nH]c(=S)[nH]1)c1cc(Br)c[nH]1` [Compound 44, 4-bromo-1H-pyrrole-2-carboxylic acid [3-(2-thioxo-2,3-dihydro-1H-imidazol-4-yl)-propyl]-amide], the inhibition at 500 µM ([1]; Pseudomonas aeruginosa, PAO1) is reported as 28% and the inhibition at 500 µM (P. aeruginosa PA14; Pseudomonas aeruginosa) is reported as 14%.
Compound `Cn1c(C(=O)NCCCc2c[nH]c(=S)[nH]2)cc(Br)c1Br` [Compound 49, 4,5-dibromo-1-methyl-pyrrole-2-carboxylic acid [3-(2-thioxo-2,3-dihydro-1H-imidazol-4-yl)-propyl]-amide] has an inhibition at 500 µM ([1]; Pseudomonas aeruginosa, PAO1) of 46% and an inhibition at 500 µM (P. aeruginosa PA14; Pseudomonas aeruginosa) of 38%.
With `Nc1nc(CCCNC(=O)c2cc(Br)c(Br)[nH]2)c[nH]1` [Compound 19, 4,5-dibromo-1H-pyrrole-2-carboxylic acid [3-(2-amino-1H-imidazol-4-yl)-propyl]-amide hydrochloride] the inhibition at 500 µM ([1]; Pseudomonas aeruginosa, PAO1) was under 70% and the inhibition at 500 µM (P. aeruginosa PA14; Pseudomonas aeruginosa) was under 70%.
`O=C(NCCc1c[nH]cn1)c1cc(Cl)c(Cl)[nH]1` [Compound 37, 4,5-dichloro-1H-pyrrole-2-carboxylic acid [2-(1H-imidazol-4-yl)-ethyl]-amide hydrochloride] gave an inhibition at 500 µM ([1]; Pseudomonas aeruginosa, PAO1) of 33% and an inhibition at 500 µM (P. aeruginosa PA14; Pseudomonas aeruginosa) of 38%.
`O=C(NCCCc1c[nH]c(=S)[nH]1)c1cc(Cl)c(Cl)[nH]1` [Compound 46, 4,5-dichloro-1H-pyrrole-2-carboxylic acid [3-(2-thioxo-2,3-dihydro-1H-imidazol-4-yl)-propyl]-amide] gave an inhibition at 500 µM ([1]; Pseudomonas aeruginosa, PAO1) of 41% and an inhibition at 500 µM (P. aeruginosa PA14; Pseudomonas aeruginosa) of 38%.
Work on `CCCCCCCCNC(=O)CCCc1c[nH]c(N)n1` [Compound 10, 4-(2-amino-1H-imidazol-4-yl)-N-octyl-butyramide hydrochloride] yielded an IC50 ([1]; Pseudomonas aeruginosa, PAO1) of 18.4 ± 2.3 µM and an IC50 (P. aeruginosa PA14; Pseudomonas aeruginosa, PA14) of 13.3 ± 1.8 µM.
With `O=C(NCCc1c[nH]cn1)c1ccc[nH]1` [Compound 34, 1H-pyrrole-2-carboxylic acid [2-(1H-imidazol-4-yl)-ethyl]amide hydrochloride] the inhibition at 500 µM ([1]; Pseudomonas aeruginosa, PAO1) was 42% and the inhibition at 500 µM (P. aeruginosa PA14; Pseudomonas aeruginosa) was 31%.
Work on `Cn1cccc1C(=O)NCCc1c[nH]cn1` [Compound 38, 1-methyl-pyrrole-2-carboxylic acid [2-(1H-imidazol-4-yl)-ethyl]amide hydrochloride] yielded an inhibition at 500 µM ([1]; Pseudomonas aeruginosa, PAO1) of 29% and an inhibition at 500 µM (P. aeruginosa PA14; Pseudomonas aeruginosa) of 34%.
Compound `Cn1cc(Br)cc1C(=O)NCCCc1c[nH]c(=S)[nH]1` [Compound 48, 4-bromo-1-methyl-pyrrole-2-carboxylic acid [3-(2-thioxo-2,3-dihydro-1H-imidazol-4-yl)-propyl]-amide] has an inhibition at 500 µM ([1]; Pseudomonas aeruginosa, PAO1) of 41% and an inhibition at 500 µM (P. aeruginosa PA14; Pseudomonas aeruginosa) of 57%.
In the case of `Cn1cc(Br)cc1C(=O)NCCCc1c[nH]c(N)n1` [Compound 22, 4-bromo-1-methyl-pyrrole-2-carboxylic acid [3-(2-amino-1H-imidazol-4-yl)-propyl]-amide hydrochloride], the inhibition at 500 µM ([1]; Pseudomonas aeruginosa, PAO1) is reported as 88%, the IC50 ([1]; Pseudomonas aeruginosa, PAO1) is reported as 348 ± 13 µM and the inhibition at 500 µM (P. aeruginosa PA14; Pseudomonas aeruginosa) is reported as 83%. It also gave an IC50 (P. aeruginosa PA14; Pseudomonas aeruginosa, PA14) of 309 ± 16 µM.
In the case of `Cl.Nc1nc(CCCNC(=O)c2ccc[nH]2)c[nH]1` [Compound 17, 1H-pyrrole-2-carboxylic acid [3-(2-amino-1H-imidazol-4-yl)-propyl]-amide hydrochloride], the “% Biofilm Inhibition at 500 μM vs PAO1” value ([1]; 500 μM, hydrochloride) is reported as under 10%, the inhibition at 500 µM ([1]; Pseudomonas aeruginosa, PAO1) is reported as under 10% and the inhibition at 500 µM (P. aeruginosa PA14; Pseudomonas aeruginosa) is reported as 16%.
With `CCCCCCNC(=O)CCCc1c[nH]c(N)n1` [Compound 9, 4-(2-amino-1H-imidazol-4-yl)-N-hexyl-butyramide hydrochloride] the IC50 ([1]; Pseudomonas aeruginosa, PAO1) was 32.7 ± 6.5 µM and the IC50 (P. aeruginosa PA14; Pseudomonas aeruginosa, PA14) was 39.9 ± 13 µM.
Work on `Nc1nc(CCCNC(=O)c2cc(Cl)c(Cl)[nH]2)c[nH]1` [Compound 20, 4,5-dichloro-1H-pyrrole-2-carboxylic acid [3-(2-amino-1H-imidazol-4-yl)-propyl]-amide hydrochloride] yielded an inhibition at 500 µM ([1]; Pseudomonas aeruginosa, PAO1) of 37% and an inhibition at 500 µM (P. aeruginosa PA14; Pseudomonas aeruginosa) of 48%.
For `O=C(NCCCc1c[nH]c(=S)[nH]1)c1ccc[nH]1` [Compound 43, 1H-pyrrole-2-carboxylic acid [3-(2-thioxo-2,3-dihydro-1H-imidazol-4-yl)-propyl]-amide], the inhibition at 500 µM ([1]; Pseudomonas aeruginosa, PAO1) was 39% and the inhibition at 500 µM (P. aeruginosa PA14; Pseudomonas aeruginosa) was 33%.
`Cn1cccc1C(=O)NCCCc1c[nH]c(=S)[nH]1` [Compound 47, 1-methyl-pyrrole-2-carboxylic acid [3-(2-thioxo-2,3-dihydro-1H-imidazol-4-yl)-propyl]-amide] was tested, and the inhibition at 500 µM ([1]; Pseudomonas aeruginosa, PAO1) was 27% and the inhibition at 500 µM (P. aeruginosa PA14; Pseudomonas aeruginosa) was 36%.
For `O=C(NCCCc1c[nH]c(=S)[nH]1)c1cc(Br)c(Br)[nH]1` [Compound 45, 4,5-dibromo-1H-pyrrole-2-carboxylic acid [3-(2-thioxo-2,3-dihydro-1H-imidazol-4-yl)-propyl]-amide], the inhibition at 500 µM ([1]; Pseudomonas aeruginosa, PAO1) was 61% and the inhibition at 500 µM (P. aeruginosa PA14; Pseudomonas aeruginosa) was 56%.
For `O=C(NCCc1c[nH]cn1)c1cc(Br)c[nH]1` [Compound 35, 4-bromo-1H-pyrrole-2-carboxylic acid [2-(1H-imidazol-4-yl)-ethyl]-amide hydrochloride], the inhibition at 500 µM ([1]; Pseudomonas aeruginosa, PAO1) was 46% and the inhibition at 500 µM (P. aeruginosa PA14; Pseudomonas aeruginosa) was 43%.
For `Cn1c(C(=O)NCCC=C2NC(N)=NC2=O)cc(Br)c1Br` [Compound 32, 4,5-dibromo-1-methyl-pyrrole-2-carboxylic acid [3-(2-amino-5-oxo-3,5-dihydro-imidazol-4-ylidene)-propyl]-amide hydrochloride, reference compound], the inhibition at 500 µM ([1]; Pseudomonas aeruginosa, PAO1) was under 20% and the inhibition at 500 µM (P. aeruginosa PA14; Pseudomonas aeruginosa) was under 20%.
